According to patent publication US20220389112A1, “TREATMENT OF MULTIPLE MYELOMA” (priority 2019, published 2022):

How the values were obtained:
Type in all cases: cell-based
JJN3 MM cells = assay: CD38 expression by flow cytometry on JJN3; settings: treated 72 hours prior to expression measurement
Experimental: (§1) Both types of primary NK cell were cultured with the same amount of IL-2 ([…] as is standard for primary NK cell work. MM1S, H929 and JJN3 were treated with either SIA or Neura as described above and stained with an anti-CD38 antibody (BD Pharmingen-564498) for 30 mins on ice prior to being screened for expression using flow cytometry.
JJN3 MM cells were treated with 300 μM SIA and 10 nM ATRA (all-trans retinoic acid), or 300 μM SIA, 10 nM ATRA and DMSO individually for 72 hrs@37° C. After 72 hours, the cells were collected, washed with normal culture media once and then treated with Daratumumab at a concentration of 10 μg/ml for 30 mins at room temperature.
Some cells from all treatment conditions were not treated with Daratumumab and were instead screened for CD38 expression using an anti-CD38 antibody.

[1] = system: H929 target myeloma cell line; assay: NK cell mediated cytotoxicity co-culture against H929; settings: expanded primary NK cells, co-cultures 4 hrs
Experimental: Co-cultures were carried out with either expanded (Miltenyi method) primary NK cells or IL-2 activated primary NK cells, both originally isolated from peripheral blood supplied by healthy donors and H929 and JJN3 target myeloma cell lines.
Propidium Iodide was used in flow cytometry to identify dead cells. MM cells were separated from NK cells by staining NK cells with CFSE cell tracking dye prior to initiating the co-culture.
% specific lysis (reported in all our figures) was calculated using the following formula:
Total cell death−basal cell death/100−basal cell death×100=%
Cell death here applies to target cells (e.g. JJN3 and H929)
After 30 mins treatment with Daratumumab, cells were co-cultured with primary expanded NK cells (Miltenyi method) for 4 hours at either 0.5:1 or 1:1 E:T (Effector:Target) ratios.

MM cell line MM1S = assay: CD38 expression by flow cytometry on MM1S; settings: anti-CD38 staining, vs non-treated controls
Experimental: (§2) Desialylation: Target cells were cultured with 300 μM 3Fax-Peracetyl Neu5Ac (SIA, sialyltransferase inhibitor) for 72 hrs prior to use or treated with Neuraminidase (Neura, sialidase) for 45 mins@37° C. prior to use.
as §1

MM cell line H929 = assay: CD38 expression by flow cytometry on H929; settings: anti-CD38 staining, vs non-treated controls
Experimental: as §2, §1

| SMILES | CD38 expression (JJN3 MM cells) | expanded primary NK cell-mediated cytotoxicity (% specific lysis) [1] | CD38 expression (MFI) (MM cell line MM1S) | CD38 expression (MFI) (MM cell line H929) |
| --- | --- | --- | --- | --- |
| CC1=C(/C=C/C(C)=C/C=C/C(C)=C/C(=O)O)C(C)(C)CCC1 [ATRA, all-trans retinoic acid] | strongly up-regulates CD38 expression |  |  |  |
| COC(=O)C1(OC(C)=O)OC(C(OC(C)=O)C(COC(C)=O)OC(C)=O)C(NC(C)=O)C(OC(C)=O)C1F (stereo not shown) [SIA, 3Fax-Peracetyl Neu5Ac] |  | enhanced expanded primary NK cell-mediated cytotoxicity | unmasks CD38 | unmasks CD38 |
